# Experimental data taken from publication PMC10724237, “Identification of 5-HT2A receptor signaling pathways associated with psychedelic potential” (Nature Communications, 2023).
# Like-named read-outs stand apart in the source and are kept apart here.
# Tests used:
# [1] = molecular target: T1, 5-HT2A receptor (5-HT2AR) (Homo sapiens, UniProt P28223); assay type: cell-based
# T1 construct: gene HTR2A; full-length receptor in HEK293T; co-expressed Galphaq-RLuc8/Gbeta1/Ggamma1-GFP2 for Gq dissociation; C-terminal RLuc8 fusion for beta-arrestin2 recruitment
# T1 sequence (P28223 whole entry, the tested form may be a part): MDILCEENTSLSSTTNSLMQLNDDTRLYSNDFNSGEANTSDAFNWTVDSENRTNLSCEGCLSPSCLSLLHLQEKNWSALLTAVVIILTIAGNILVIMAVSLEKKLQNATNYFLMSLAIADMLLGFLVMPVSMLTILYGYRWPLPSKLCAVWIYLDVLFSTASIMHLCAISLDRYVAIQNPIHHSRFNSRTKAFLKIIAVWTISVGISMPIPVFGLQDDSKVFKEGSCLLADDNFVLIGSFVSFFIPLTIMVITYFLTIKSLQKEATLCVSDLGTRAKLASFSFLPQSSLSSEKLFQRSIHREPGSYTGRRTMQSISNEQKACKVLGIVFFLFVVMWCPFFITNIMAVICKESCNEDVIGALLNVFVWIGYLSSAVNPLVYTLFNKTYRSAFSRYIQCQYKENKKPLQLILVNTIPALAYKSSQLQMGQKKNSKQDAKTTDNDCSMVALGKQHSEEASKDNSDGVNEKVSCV
# [2] = molecular target: T2, 5-HT2B receptor (5-HT2BR) (Homo sapiens, UniProt P41595); assay: Gq dissociation BRET2 in HEK293T; assay type: cell-based; details: partial agonist; 37 °C, 60 min
# T2 construct: gene HTR2B; full-length receptor in HEK293T with Galphaq-RLuc8/Gbeta1/Ggamma1-GFP2
# T2 sequence (P41595 whole entry): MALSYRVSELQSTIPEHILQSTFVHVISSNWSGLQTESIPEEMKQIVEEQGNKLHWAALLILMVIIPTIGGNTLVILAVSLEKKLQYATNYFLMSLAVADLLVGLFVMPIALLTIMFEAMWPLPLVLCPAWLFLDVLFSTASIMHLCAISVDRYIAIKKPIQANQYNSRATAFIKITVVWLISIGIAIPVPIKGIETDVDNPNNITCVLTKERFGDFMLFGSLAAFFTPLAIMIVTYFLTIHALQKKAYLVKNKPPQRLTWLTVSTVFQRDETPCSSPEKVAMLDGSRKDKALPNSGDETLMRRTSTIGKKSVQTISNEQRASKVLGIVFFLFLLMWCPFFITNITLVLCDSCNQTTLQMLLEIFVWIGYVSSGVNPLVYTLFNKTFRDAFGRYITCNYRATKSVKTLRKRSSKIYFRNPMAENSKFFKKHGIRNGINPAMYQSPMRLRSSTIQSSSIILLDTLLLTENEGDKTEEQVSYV
# [3] = molecular target: T3, 5-HT2C receptor (5-HT2CR) (Homo sapiens, UniProt P28335); assay: Gq dissociation BRET2 in HEK293T; assay type: cell-based; details: agonist; 37 °C, 60 min
# T3 construct: gene HTR2C; full-length receptor in HEK293T with Galphaq-RLuc8/Gbeta1/Ggamma1-GFP2
# T3 sequence (P28335 33-458): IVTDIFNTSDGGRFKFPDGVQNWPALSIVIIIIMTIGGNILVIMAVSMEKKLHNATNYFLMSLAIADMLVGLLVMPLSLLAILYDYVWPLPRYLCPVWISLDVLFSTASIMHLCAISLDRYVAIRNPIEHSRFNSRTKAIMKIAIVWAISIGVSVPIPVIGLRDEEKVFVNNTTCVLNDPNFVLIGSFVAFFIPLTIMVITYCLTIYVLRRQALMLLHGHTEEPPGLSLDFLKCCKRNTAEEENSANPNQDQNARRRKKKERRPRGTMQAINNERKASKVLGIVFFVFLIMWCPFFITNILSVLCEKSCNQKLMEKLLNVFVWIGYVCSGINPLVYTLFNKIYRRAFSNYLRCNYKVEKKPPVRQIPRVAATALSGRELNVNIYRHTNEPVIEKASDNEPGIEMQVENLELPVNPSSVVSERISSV
# [4] = molecular target: T1, 5-HT2A receptor (5-HT2AR); assay: competition radioligand binding (NIMH PDSP); details: competitive
# [5] = molecular target: T1, 5-HT2A receptor (5-HT2AR); assay: Gq dissociation BRET2 in HEK293T; assay type: cell-based; details: 37 °C
compound,measurement,setting,value
"COc1ccc2[nH]cc(CCN(C)C)c2c1 [5-MeO-DMT, 5-methoxy-N,N-dimethyltryptamine]",EC50,"[1]; agonist, 37 °C, 60 min","(E) Psilocin, (F) DMT, (G) 5-MeO-DMT"
CN(C)CCc1c[nH]c2ccccc12 [DMT],EC50,[1],"(E) Psilocin, (F) DMT, (G) 5-MeO-DMT"
CN(C)CCc1c[nH]c2cccc(O)c12 [Psilocin],EC50,"[1]; agonist, 37 °C, 60 min","(E) Psilocin, (F) DMT, (G) 5-MeO-DMT"
"COc1cc([N+](=O)[O-])c(OC)cc1CCNCc1ccccc1 [compound 2, 25N-NB]",EMAX,[2],32 % of 5-HT
same,EC50,[3],8.3 nM
"COc1cc([N+](=O)[O-])c(OC)cc1CCNCc1ccccc1I [compound 10, 25N-NBI]",pKi,[4],selectivity for 5-HT2AR over 5-HT2BR and 5-HT2CR in competitive binding studies
"COc1cc(CCNCc2cccc3ccccc23)c(OC)cc1C [compound 26, 25D-N1-Nap]",EMAX,[5]; partial agonist,34.3 % of 5-HT
COc1cc(OC)c(OC)cc1CCNCc1ccccc1OC [compound 32],EMAX,[5]; agonist,99.9 % of 5-HT
"COc1cc(OC)c(OC)cc1CCNCc1cccc(I)c1 [compound 34, 25O-NB-3-I]",EMAX,[5]; partial agonist,51.7 % of 5-HT
